# Assay results as given in ChEMBL document CHEMBL2010656, “Design, synthesis and evaluation of isaindigotone derivatives as dual inhibitors for acetylcholinesterase and amyloid beta aggregation” (Bioorg Med Chem, 2012).
# pIC50: −log10 of the molar value. Activity calls are given as the source filed them. The calls are words filed in the database; no cut-off is given here.
# Legend:
# Acetylcholinesterase = Acetylcholinesterase (Electrophorus electricus, UniProt O42275)
# Description: Inhibition of electric eel acetylcholinesterase using acetylcholine chloride as substrate preincubated for 15 mins before substrate addition by Ellman's method
# [1] = Inhibition of amyloid beta (1 to 40) self-mediated aggregation at 10 uM after 72 hrs by thioflavin T based fluorometric assay relative to control
# Cholinesterase = Cholinesterase (Equus caballus, UniProt P81908)
# Chain of Cholinesterase (P81908 whole entry): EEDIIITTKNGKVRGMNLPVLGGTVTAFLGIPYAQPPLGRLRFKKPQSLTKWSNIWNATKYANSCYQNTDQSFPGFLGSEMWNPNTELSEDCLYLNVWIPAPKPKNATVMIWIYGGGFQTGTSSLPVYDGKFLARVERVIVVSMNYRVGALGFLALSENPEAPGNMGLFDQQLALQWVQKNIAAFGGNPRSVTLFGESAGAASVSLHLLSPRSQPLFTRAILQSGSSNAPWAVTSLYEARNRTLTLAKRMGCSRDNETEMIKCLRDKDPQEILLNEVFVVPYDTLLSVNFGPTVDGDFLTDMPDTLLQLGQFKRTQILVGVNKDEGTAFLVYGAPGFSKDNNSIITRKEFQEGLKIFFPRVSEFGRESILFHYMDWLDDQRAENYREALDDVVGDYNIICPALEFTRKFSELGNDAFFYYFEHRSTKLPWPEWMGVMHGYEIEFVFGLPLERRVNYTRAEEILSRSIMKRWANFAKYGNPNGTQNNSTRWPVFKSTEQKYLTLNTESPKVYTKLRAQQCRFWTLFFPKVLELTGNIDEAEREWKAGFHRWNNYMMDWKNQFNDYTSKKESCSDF
# Description: Inhibition of equine serum butyrylcholinesterase using butyrylthiocholine chloride as substrate preincubated for 15 mins before substrate addition by Ellman's method
# [2] = Inhibition of amyloid beta (1 to 40) self-mediated aggregation assessed as inhibition of extended fibrils formation at 10 uM after 4 days by transmission electron microscopic analysis
# [3] = Inhibition of amyloid beta (1 to 40) self-mediated aggregation assessed as change in alpha-helix structure formation at 20 uM after 3 days by CD spectropolarimetric analysis
# [4] = molecular target: Acetylcholinesterase (Electrophorus electricus) (UniProt O42275); assay: Mixed type inhibition of electric eel acetylcholinesterase preincubated for 15 mins by Lineweaver-Burk plot analysis
# Chain of Acetylcholinesterase (Electrophorus electricus) (O42275 24-633 limits assumed): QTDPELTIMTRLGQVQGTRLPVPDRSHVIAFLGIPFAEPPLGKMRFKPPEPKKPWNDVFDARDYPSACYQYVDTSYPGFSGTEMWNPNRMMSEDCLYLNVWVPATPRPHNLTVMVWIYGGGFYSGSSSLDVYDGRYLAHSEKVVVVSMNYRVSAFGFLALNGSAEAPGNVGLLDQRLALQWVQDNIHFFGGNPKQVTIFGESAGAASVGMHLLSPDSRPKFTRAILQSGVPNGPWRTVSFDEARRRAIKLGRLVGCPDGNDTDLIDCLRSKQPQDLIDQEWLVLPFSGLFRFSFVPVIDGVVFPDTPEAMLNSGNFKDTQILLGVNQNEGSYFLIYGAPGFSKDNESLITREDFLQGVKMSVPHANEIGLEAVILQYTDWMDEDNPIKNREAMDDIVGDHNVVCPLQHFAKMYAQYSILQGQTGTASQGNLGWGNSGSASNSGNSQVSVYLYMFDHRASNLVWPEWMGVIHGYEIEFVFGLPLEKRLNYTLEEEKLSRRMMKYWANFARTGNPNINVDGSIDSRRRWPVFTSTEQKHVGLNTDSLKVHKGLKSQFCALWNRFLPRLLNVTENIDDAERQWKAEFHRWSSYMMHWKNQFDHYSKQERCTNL
# [5] = Inhibition of amyloid beta (1 to 40) self-mediated aggregation assessed as reduction in beta-sheet structure formation at 20 uM after 3 days by CD spectropolarimetric analysis
# Chain of Acetylcholinesterase (O42275 whole entry): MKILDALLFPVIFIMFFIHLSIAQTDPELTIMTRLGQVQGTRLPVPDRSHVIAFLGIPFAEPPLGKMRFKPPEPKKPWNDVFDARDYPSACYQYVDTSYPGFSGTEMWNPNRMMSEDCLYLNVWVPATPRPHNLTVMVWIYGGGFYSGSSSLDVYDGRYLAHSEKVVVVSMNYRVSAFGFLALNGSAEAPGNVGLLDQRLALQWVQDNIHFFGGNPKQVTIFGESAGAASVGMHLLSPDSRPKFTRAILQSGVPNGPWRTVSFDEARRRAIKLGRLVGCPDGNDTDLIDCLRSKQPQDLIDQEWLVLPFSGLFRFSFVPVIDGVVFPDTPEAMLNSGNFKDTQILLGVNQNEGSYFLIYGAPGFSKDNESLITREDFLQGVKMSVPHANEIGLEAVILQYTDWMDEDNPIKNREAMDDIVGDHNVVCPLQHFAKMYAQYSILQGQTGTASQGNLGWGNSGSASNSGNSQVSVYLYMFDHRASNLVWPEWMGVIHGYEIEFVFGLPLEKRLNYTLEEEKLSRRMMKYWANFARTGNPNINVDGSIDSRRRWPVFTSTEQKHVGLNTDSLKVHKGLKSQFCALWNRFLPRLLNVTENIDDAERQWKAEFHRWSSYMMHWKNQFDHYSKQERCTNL
SMILES,pIC50 (Acetylcholinesterase),inhibition [1] [%],pIC50 (Cholinesterase),inhibition [2],inhibition [3],inhibition [4],inhibition [5]
O=C(NCCCN1CCCC1)c1ccc(/C=C2\CCCn3c2nc2cc(Cl)ccc2c3=O)cc1,5.92,53.3,6.30,–,–,–,–
CCN(CC)CCC(=O)Nc1ccc(/C=C2\CCn3c2nc2cc(Cl)ccc2c3=O)cc1,7.22,39,5.19,–,–,–,–
O=C(NCCN1CCCC1)c1ccc(/C=C2\CCCn3c2nc2cc(Cl)ccc2c3=O)cc1,5.82,53.6,5.17,–,–,–,–
O=C(CCN1CCCC1)Nc1ccc(/C=C2\CCn3c2nc2cc(Cl)ccc2c3=O)cc1,7.39,62.3,5.42,Active,inactive,Active,Active
O=C(CCN1CCCCC1)Nc1ccc(/C=C2\CCn3c2nc2cc(Cl)ccc2c3=O)cc1,7.64,49.8,5.54,–,–,–,–
O=C(CCN1CCCCC1)Nc1ccc(/C=C2\CCCn3c2nc2cc(Cl)ccc2c3=O)cc1,7.51,52.9,5.22,–,–,–,–
O=C(CC[n+]1ccccc1)Nc1ccc(/C=C2\CCCn3c2nc2cc(Cl)ccc2c3=O)cc1,6.09,33,5.47,–,–,–,–
O=C(NCCCN1CCCC1)c1ccc(/C=C2\CCn3c2nc2cc(Cl)ccc2c3=O)cc1,5.84,36.2,6.21,–,–,–,–
CCN(CC)CCC(=O)Nc1ccc(/C=C2\CCCn3c2nc2cc(Cl)ccc2c3=O)cc1,< 6.00,54.8,5.63,–,–,–,–
CN(C)CCCNC(=O)c1ccc(/C=C2\CCn3c2nc2cc(Cl)ccc2c3=O)cc1,5.85,56.5,5.29,–,–,–,–
CN(C)CCNC(=O)c1ccc(/C=C2\CCCn3c2nc2cc(Cl)ccc2c3=O)cc1,6.44,54.5,< 4.40,–,–,–,–
COc1cc(/C=C/C(=O)CC(=O)/C=C/c2ccc(O)c(OC)c2)ccc1O,–,48.8,–,–,–,–,–
O=C(NCCN1CCCC1)c1ccc(/C=C2\CCn3c2nc2cc(Cl)ccc2c3=O)cc1,7.35,57.4,4.96,–,–,–,–
CN(C)CCCNC(=O)c1ccc(/C=C2\CCCn3c2nc2cc(Cl)ccc2c3=O)cc1,5.69,49.8,5.18,–,–,–,–
O=C(CC[n+]1ccccc1)Nc1ccc(/C=C2\CCn3c2nc2cc(Cl)ccc2c3=O)cc1,7.31,49,5.77,–,–,–,–
CN(C)CCNC(=O)c1ccc(/C=C2\CCn3c2nc2cc(Cl)ccc2c3=O)cc1,6.80,36.8,< 4.70,–,–,–,–
O=C(CCN1CCCC1)Nc1ccc(/C=C2\CCCn3c2nc2cc(Cl)ccc2c3=O)cc1,< 6.00,53.5,5.19,–,–,–,–
